Measurements: patent US20250262222A1, “HETEROCYCLIC COMPOUNDS, COMPOSITIONS THEREOF, AND METHODS OF TREATMENT THEREWITH” (BeiGene Switzerland GmbH, priority 2022, published 2025)

Tested on: pERK1/2(THR202/TYR204) level in AsPC-1 cell line
Assay: KRAS G12D pERK assay
Assay type: cell-based
Conditions: AsPC-1 cells, 2 h compound treatment, HTRF
Protocol: AsPC-1 cell line was used in this study. Cells were maintained in RPMI-1640 supplemented with 10% fetal bovine serum (Thermo Fisher), 50 units/mL penicillin and streptomycin (Thermo Fisher) and kept at 37° C. in a humidified atmosphere of 5% CO2 in air. Cells were reinstated from frozen stocks that were laid down within 30 passages from the original cells purchased. 30000 cells per well were seeded into a 96-well plate and incubated overnight. Cells were treated with a 10-point dilution series. The final compound concentration is from 0 to 10 μM. After 2 h compound treatment, cells were lysed, and the pERK1/2(THR202/TYR204) level in the cell lysates was detected by HTRF kit (Cisbio). In brief, a total of 16 μL of cell lysate from each well of a 96-well plate was transferred to a 384-well white assay plate. Lysate from each well was incubated with 2 μL of Eu3+-cryptate (donor) labeled anti-phospho-ERK1/2 and 2 μL of D2 (acceptor) labeled anti-phospho-ERK1/2 antibodies (Cisbio) overnight in dark at room temperature. When donor and acceptor are in close proximity, excitation of the donor with laser triggers a Fluorescence Resonance Energy Transfer (FRET) towards the acceptor, which in turn fluoresces at 655 nm wavelength. FRET signals were measured using a PHERAstar FSX reader (BMG Labtech). IC50 determination was performed by fitting the curve of percent inhibition versus the log of the inhibitor concentration using Dotmatics.

Row | SMILES | IC50 [nM] | IC50 (Homo sapiens, ASPC1, 2 h) [nM]
1 | Nc1cc(Cl)c(C(F)(F)F)c(-c2nc3c4c(nc(OC[C@@]56CCCN5C[C@H](F)C6)nc4c2F)N2C[C@H]4CC[C@H](N4)C2CCO3)c1 (single isomer, unassigned) [Example 24] | 4.4 | 
2 | COCC1(COc2nc3c4c(nc(-c5cc(N)cc(Cl)c5C(F)(F)F)c(F)c4n2)OCC[C@@H]2[C@@H]4CC[C@H](CN32)N4)COC1 [Example 62, 3-chloro-5-((6aR,7S,10R)-1-fluoro-13-((3-(methoxymethyl)oxetan-3-yl)methoxy)-5,6,6a,7,8,9,10,11-octahydro-4-oxa-3,11a,12,14,15-pentaaza-7,10-methanocyclohepta[4,5]cyclo-octa[1,2,3-de]naphthalen-2-yl)-4-(trifluoromethyl)aniline] |  | 346
3 | COC(=O)N1CC(C)(COc2nc3c4c(nc(-c5cc(N)cc(C)c5C(F)(F)F)c(F)c4n2)OCC[C@@H]2[C@@H]4CC[C@H](CN32)N4)C1 [Example 43, methyl 3-((((6aR,7S,10R)-2-(5-amino-3-methyl-2-(trifluoromethyl)phenyl)-1-fluoro-5,6,6a,7,8,9,10,11-octahydro-4-oxa-3,11a,12,14,15-pentaaza-7,10-methanocyclohepta[4,5]cyclo-octa[1,2,3-de]naphthalen-13-yl)oxy)methyl)-3-methylazetidine-1-carboxylate] |  | 584
4 | Nc1cc(Cl)c(C(F)(F)F)c(-c2nc3c4c(nc(OCC56COCC(F)(C5)C6)nc4c2F)N2C[C@H]4CC[C@H](N4)[C@H]2CCO3)c1 [Example 37, 3-chloro-5-((6aR,7S,10R)-1-fluoro-13-((5-fluoro-3-oxabicyclo[3.1.1]heptan-1-yl)methoxy)-5,6,6a,7,8,9,10,11-octahydro-4-oxa-3,11a,12,14,15-pentaaza-7,10-methanocyclohepta[4,5]cyclo-octa[1,2,3-de]naphthalen-2-yl)-4-(trifluoromethyl)aniline] |  | 97
5 | Nc1cc(Cl)c(C(F)(F)F)c(-c2nc3c4c(nc(OCC56CCC(COC5)C6)nc4c2F)N2C[C@H]4CC[C@H](N4)[C@H]2CCO3)c1 [Example 45, 3-((6aR,7S,10R)-13-((3-oxabicyclo[3.2.1]octan-1-yl)methoxy)-1-fluoro-5,6,6a,7,8,9,10,11-octahydro-4-oxa-3,11a,12,14,15-pentaaza-7,10-methanocyclohepta[4,5]cyclo-octa[1,2,3-de]naphthalen-2-yl)-5-chloro-4-(trifluoromethyl)aniline] |  | 221
6 | COCC12CC(COc3nc4c5c(nc(-c6cc(N)cc(Cl)c6C(F)(F)F)c(F)c5n3)OCC[C@@H]3[C@@H]5CC[C@H](CN43)N5)(CO1)C2 [Example 39, 3-chloro-5-((6aR,7S,10R)-1-fluoro-13-((1-(methoxymethyl)-2-oxabicyclo[2.1.1]hexan-4-yl)methoxy)-5,6,6a,7,8,9,10,11-octahydro-4-oxa-3,11a,12,14,15-pentaaza-7,10-methanocyclohepta[4,5]cyclo-octa[1,2,3-de]naphthalen-2-yl)-4-(trifluoromethyl)aniline] |  | 409
7 | Nc1cc(Cl)c(C(F)(F)F)c(-c2nc3c4c(nc(OCC56COCC(C5)C6)nc4c2F)N2C[C@H]4CC[C@H](N4)[C@H]2CCO3)c1 [Example 67, 3-((6aR,7S,10R)-13-((3-oxabicyclo[3.1.1]heptan-1-yl)methoxy)-1-fluoro-5,6,6a,7,8,9,10,11-octahydro-4-oxa-3,11a,12,14,15-pentaaza-7,10-methanocyclohepta[4,5]cyclo-octa[1,2,3-de]naphthalen-2-yl)-5-chloro-4-(trifluoromethyl)aniline] |  | 169
8 | C#Cc1c(F)ccc2cc(O)cc(-c3nc4c5c(nc(OC[C@@]67CCCN6C[C@H](F)C7)nc5c3F)N3CC5CCC(N5)C3CO4)c12 (stereo partly drawn) [Example 11, 5-ethynyl-6-fluoro-4-(1-fluoro-12-(((2R,7aS)-2-fluorotetrahydro-1H-pyrrolizin-7a(5H)-yl)methoxy)-5a,6,7,8,9,10-hexahydro-5H-4-oxa-3,10a,11,13,14-pentaaza-6,9-methanonaphtho[1,8-ab]heptalen-2-yl)naphthalen-2-ol] |  | 30
9 | Nc1cc(Cl)c(C(F)(F)F)c(-c2nc3c4c(nc(OCC5(C(F)F)CCOC5)nc4c2F)N2C[C@H]4CC[C@H](N4)[C@H]2CCO3)c1 (stereo partly drawn) [Example 63, 3-chloro-5-((6aR,7S,10R)-13-((3-(difluoromethyl)tetrahydrofuran-3-yl)methoxy)-1-fluoro-5,6,6a,7,8,9,10,11-octahydro-4-oxa-3,11a,12,14,15-pentaaza-7,10-methanocyclohepta[4,5]cyclo-octa[1,2,3-de]naphthalen-2-yl)-4-(trifluoromethyl)aniline] |  | 151
10 | CC1(COc2nc3c4c(nc(-c5cc(N)cc(Cl)c5C(F)(F)F)c(F)c4n2)OCC[C@@H]2[C@@H]4CC[C@H](CN32)N4)COC1 [Example 66, 3-chloro-5-((6aR,7S,10R)-1-fluoro-13-((3-methyloxetan-3-yl)methoxy)-5,6,6a,7,8,9,10,11-octahydro-4-oxa-3,11a,12,14,15-pentaaza-7,10-methanocyclohepta[4,5]cyclo-octa[1,2,3-de]naphthalen-2-yl)-4-(trifluoromethyl)aniline] |  | 145
11 | Nc1cc(Cl)c(C(F)(F)F)c(-c2nc3c4c(nc(OCC56COC(C(F)(F)F)(C5)C6)nc4c2F)N2C[C@H]4CC[C@H](N4)[C@H]2CCO3)c1 [Example 53, 3-chloro-5-((6aR,7S,10R)-1-fluoro-13-((1-(trifluoromethyl)-2-oxabicyclo[2.1.1]hexan-4-yl)methoxy)-5,6,6a,7,8,9,10,11-octahydro-4-oxa-3,11a,12,14,15-pentaaza-7,10-methanocyclohepta[4,5]cyclo-octa[1,2,3-de]naphthalen-2-yl)-4-(trifluoromethyl)aniline] |  | 211
12 | Nc1cc(Cl)c(C(F)(F)F)c(-c2nc3c4c(nc(OCC56COC(CF)(C5)C6)nc4c2F)N2C[C@H]4CC[C@H](N4)[C@H]2CCO3)c1 [Example 50, 3-chloro-5-((6aR,7S,10R)-1-fluoro-13-((1-(fluoromethyl)-2-oxabicyclo[2.1.1]hexan-4-yl)methoxy)-5,6,6a,7,8,9,10,11-octahydro-4-oxa-3,11a,12,14,15-pentaaza-7,10-methanocyclohepta[4,5]cyclo-octa[1,2,3-de]naphthalen-2-yl)-4-(trifluoromethyl)aniline] |  | 109
13 | CCc1cc(N)cc(-c2nc3c4c(nc(OCC56COC(C5)C6)nc4c2F)N2C[C@H]4CC[C@H](N4)[C@H]2CCO3)c1C(F)(F)F [Example 68, 3-((6aR,7S,10R)-13-((2-oxabicyclo[2.1.1]hexan-4-yl)methoxy)-1-fluoro-5,6,6a,7,8,9,10,11-octahydro-4-oxa-3,11a,12,14,15-pentaaza-7,10-methanocyclohepta[4,5]cycloocta[1,2,3-de]naphthalen-2-yl)-5-ethyl-4-(trifluoromethyl)aniline] |  | 548
14 | Cc1cc(N)cc(-c2nc3c4c(nc(OCC56COC(C)(C5)C6)nc4c2F)N2C[C@H]4CC[C@H](N4)[C@H]2CCO3)c1C(F)(F)F [Example 28, 3-((6aR,7S,10R)-1-fluoro-13-((1-methyl-2-oxabicyclo[2.1.1]hexan-4-yl)methoxy)-5,6,6a,7,8,9,10,11-octahydro-4-oxa-3,11a,12,14,15-pentaaza-7,10-methanocyclohepta[4,5]cyclo-octa[1,2,3-de]naphthalen-2-yl)-5-methyl-4-(trifluoromethyl)aniline] |  | 152
15 | Nc1cc(Cl)c(C(F)(F)F)c(-c2nc3c4c(nc(OC[C@@]56CCCN5C[C@H](F)C6)nc4c2F)N2C[C@H]4CC[C@H](N4)C2CCO3)c1 (single isomer, unassigned) [Example 25] | 504 | 
16 | Cc1cc(N)cc(-c2nc3c4c(nc(OCC56COC(CF)(C5)C6)nc4c2F)N2C[C@H]4CC[C@H](N4)[C@H]2CCO3)c1C(F)(F)F [Example 49, 3-((6aR,7S,10R)-1-fluoro-13-((1-(fluoromethyl)-2-oxabicyclo[2.1.1]hexan-4-yl)methoxy)-5,6,6a,7,8,9,10,11-octahydro-4-oxa-3,11a,12,14,15-pentaaza-7,10-methanocyclohepta[4,5]cyclo-octa[1,2,3-de]naphthalen-2-yl)-5-methyl-4-(trifluoromethyl)aniline] |  | 172
17 | C[C@](O)(COc1nc2c3c(nc(-c4cc(N)cc(Cl)c4C(F)(F)F)c(F)c3n1)OCC[C@@H]1[C@@H]3CC[C@H](CN21)N3)C(F)(F)F [Example 44, (S)-3-(((6aR,7S,10R)-2-(5-amino-3-chloro-2-(trifluoromethyl)phenyl)-1-fluoro-5,6,6a,7,8,9,10,11-octahydro-4-oxa-3,11a,12,14,15-pentaaza-7,10-methanocyclohepta[4,5]cyclo-octa[1,2,3-de]naphthalen-13-yl)oxy)-1,1,1-trifluoro-2-methylpropan-2-ol] |  | 2220
18 | COC1(COc2nc3c4c(nc(-c5cc(N)cc(Cl)c5C(F)(F)F)c(F)c4n2)OCC[C@@H]2[C@@H]4CC[C@H](CN32)N4)COC1 [Example 61, 3-chloro-5-((6aR,7S,10R)-1-fluoro-13-((3-methoxyoxetan-3-yl)methoxy)-5,6,6a,7,8,9,10,11-octahydro-4-oxa-3,11a,12,14,15-pentaaza-7,10-methanocyclohepta[4,5]cyclo-octa[1,2,3-de]naphthalen-2-yl)-4-(trifluoromethyl)aniline] |  | 332
